Measured values taken from ChEMBL document CHEMBL5291721, “A preclinical secondary pharmacology resource illuminates target-adverse drug reaction associations of marketed drugs” (Nat Commun, 2023).
Values belong to the compound of their own block, whether it stands above or below them.

Columns and labels:
Estrogen receptor beta = Estrogen receptor beta (Homo sapiens, UniProt Q92731)
[1] = target: T1, Corticotropin-releasing factor receptor 1 (Homo sapiens, UniProt P34998)
T1 sequence (P34998 whole entry): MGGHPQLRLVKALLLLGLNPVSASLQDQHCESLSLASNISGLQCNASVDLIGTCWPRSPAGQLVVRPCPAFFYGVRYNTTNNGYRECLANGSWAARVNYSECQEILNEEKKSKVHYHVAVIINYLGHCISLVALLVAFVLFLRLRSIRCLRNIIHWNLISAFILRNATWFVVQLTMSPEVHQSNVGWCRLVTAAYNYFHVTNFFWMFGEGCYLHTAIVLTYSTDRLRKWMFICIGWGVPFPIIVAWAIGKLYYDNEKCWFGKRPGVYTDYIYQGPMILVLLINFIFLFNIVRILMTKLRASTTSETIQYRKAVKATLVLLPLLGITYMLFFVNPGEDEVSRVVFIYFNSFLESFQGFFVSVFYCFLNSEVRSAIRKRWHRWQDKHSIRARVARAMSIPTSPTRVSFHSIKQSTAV

[2] = target: T2, Corticotropin-releasing factor receptor 2 (Homo sapiens, UniProt Q13324)
T2 sequence (Q13324 whole entry): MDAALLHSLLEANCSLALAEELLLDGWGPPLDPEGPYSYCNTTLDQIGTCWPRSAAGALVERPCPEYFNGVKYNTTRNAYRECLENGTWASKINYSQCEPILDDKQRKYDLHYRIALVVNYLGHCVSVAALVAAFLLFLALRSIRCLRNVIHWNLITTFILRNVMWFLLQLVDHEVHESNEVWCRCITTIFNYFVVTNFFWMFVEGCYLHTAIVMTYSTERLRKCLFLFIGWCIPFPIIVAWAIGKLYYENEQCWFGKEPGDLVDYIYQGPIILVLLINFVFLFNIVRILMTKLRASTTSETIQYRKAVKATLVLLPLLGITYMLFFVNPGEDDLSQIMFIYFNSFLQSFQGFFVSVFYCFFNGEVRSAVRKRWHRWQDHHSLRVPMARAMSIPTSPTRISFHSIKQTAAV

Histamine H2 receptor = Histamine H2 receptor (Homo sapiens, UniProt P25021)
Sequence of Histamine H2 receptor (P25021 whole entry): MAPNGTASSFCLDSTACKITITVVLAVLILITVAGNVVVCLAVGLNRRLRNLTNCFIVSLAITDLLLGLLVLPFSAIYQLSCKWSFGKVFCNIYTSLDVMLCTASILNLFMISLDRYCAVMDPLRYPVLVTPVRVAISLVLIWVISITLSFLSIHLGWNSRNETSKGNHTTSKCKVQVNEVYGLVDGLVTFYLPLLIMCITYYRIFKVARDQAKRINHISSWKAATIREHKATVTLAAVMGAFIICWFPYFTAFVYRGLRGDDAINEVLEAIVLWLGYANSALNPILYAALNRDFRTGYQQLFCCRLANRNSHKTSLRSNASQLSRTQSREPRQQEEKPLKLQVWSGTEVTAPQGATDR

D(1A) dopamine receptor = D(1A) dopamine receptor (Homo sapiens, UniProt P21728)
Sequence of D(1A) dopamine receptor (P21728 whole entry): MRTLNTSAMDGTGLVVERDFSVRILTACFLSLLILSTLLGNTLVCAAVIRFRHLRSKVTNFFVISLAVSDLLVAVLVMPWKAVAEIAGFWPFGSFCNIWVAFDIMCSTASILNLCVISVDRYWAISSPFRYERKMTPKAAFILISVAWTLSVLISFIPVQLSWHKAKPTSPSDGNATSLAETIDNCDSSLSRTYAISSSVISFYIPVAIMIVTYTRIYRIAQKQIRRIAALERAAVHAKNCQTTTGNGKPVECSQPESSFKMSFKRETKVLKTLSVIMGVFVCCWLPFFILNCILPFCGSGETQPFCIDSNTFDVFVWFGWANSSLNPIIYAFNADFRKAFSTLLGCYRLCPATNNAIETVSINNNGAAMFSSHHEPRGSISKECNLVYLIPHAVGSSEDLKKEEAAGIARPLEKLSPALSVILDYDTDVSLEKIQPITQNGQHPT

[3] = target: 5-hydroxytryptamine receptor 7 (Homo sapiens, UniProt P34969)
Sequence of 5-hydroxytryptamine receptor 7 (P34969 whole entry): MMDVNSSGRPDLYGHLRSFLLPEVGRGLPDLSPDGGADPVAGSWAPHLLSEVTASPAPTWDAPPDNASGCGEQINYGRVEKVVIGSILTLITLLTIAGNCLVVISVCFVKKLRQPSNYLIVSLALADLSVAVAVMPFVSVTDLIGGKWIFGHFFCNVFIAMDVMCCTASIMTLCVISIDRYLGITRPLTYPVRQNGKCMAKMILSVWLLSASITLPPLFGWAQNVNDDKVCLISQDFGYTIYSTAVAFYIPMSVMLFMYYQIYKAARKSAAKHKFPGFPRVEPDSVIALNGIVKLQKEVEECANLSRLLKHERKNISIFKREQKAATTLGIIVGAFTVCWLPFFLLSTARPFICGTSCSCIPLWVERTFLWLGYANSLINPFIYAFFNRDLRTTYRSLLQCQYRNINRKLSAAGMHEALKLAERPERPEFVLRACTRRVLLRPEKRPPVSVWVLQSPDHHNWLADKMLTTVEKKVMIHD

[4] = target: T3, Muscarinic acetylcholine receptor M5 (Homo sapiens, UniProt P08912)
T3 sequence (P08912 whole entry): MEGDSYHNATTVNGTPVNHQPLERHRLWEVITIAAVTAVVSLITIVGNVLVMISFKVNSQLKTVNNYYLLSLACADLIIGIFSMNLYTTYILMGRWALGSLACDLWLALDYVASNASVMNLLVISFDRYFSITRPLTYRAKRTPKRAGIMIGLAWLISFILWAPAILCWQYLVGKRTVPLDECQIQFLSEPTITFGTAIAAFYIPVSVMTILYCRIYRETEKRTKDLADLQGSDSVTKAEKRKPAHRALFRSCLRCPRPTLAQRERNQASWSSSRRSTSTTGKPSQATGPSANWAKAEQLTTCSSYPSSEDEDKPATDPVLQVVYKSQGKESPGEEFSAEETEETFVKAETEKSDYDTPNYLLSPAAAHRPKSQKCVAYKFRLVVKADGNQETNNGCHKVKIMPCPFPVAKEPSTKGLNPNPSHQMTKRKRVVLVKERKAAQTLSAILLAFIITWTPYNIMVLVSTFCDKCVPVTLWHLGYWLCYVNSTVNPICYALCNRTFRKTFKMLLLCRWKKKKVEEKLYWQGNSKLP

[5] = target: T4, Alpha-2A adrenergic receptor (Homo sapiens, UniProt P08913)
T4 sequence (P08913 whole entry): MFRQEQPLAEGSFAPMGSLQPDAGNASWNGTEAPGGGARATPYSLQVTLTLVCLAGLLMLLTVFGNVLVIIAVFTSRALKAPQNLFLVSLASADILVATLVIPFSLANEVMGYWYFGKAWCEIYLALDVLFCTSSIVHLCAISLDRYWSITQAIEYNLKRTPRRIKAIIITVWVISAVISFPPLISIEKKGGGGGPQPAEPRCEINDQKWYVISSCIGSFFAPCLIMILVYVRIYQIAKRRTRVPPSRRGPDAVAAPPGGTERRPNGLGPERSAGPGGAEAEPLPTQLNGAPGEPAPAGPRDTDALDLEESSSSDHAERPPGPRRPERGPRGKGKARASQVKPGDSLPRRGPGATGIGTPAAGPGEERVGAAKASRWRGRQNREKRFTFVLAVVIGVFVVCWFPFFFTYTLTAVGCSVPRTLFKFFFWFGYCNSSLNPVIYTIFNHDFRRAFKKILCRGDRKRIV

Progesterone receptor = target: T5, Progesterone receptor (Homo sapiens, UniProt P06401)
T5 sequence (P06401 whole entry): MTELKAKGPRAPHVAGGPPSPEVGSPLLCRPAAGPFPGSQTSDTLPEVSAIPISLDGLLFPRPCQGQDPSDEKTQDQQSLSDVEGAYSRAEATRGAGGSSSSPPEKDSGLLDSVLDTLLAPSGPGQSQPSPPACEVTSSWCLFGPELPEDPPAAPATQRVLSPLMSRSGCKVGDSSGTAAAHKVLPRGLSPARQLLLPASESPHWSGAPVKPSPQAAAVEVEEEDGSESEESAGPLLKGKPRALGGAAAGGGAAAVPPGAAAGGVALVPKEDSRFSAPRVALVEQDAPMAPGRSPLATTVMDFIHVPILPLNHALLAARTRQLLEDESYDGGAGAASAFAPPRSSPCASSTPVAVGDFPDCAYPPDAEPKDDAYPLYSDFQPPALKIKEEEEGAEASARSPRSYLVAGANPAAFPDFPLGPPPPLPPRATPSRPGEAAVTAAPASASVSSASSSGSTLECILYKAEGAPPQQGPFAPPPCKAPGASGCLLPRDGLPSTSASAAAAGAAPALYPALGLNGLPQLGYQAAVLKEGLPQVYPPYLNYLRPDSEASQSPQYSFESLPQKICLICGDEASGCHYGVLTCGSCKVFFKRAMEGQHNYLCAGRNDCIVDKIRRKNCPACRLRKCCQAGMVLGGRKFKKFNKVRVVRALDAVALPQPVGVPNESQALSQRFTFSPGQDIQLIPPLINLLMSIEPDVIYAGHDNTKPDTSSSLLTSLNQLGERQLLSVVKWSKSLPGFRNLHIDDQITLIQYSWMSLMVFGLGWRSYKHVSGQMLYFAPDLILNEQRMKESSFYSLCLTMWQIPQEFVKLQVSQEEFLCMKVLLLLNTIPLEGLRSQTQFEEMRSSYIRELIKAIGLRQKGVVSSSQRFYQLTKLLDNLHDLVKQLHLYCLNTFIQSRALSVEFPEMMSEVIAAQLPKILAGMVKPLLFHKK
Also: assay procedure not described here.

Sequence of Estrogen receptor beta (Q92731 whole entry): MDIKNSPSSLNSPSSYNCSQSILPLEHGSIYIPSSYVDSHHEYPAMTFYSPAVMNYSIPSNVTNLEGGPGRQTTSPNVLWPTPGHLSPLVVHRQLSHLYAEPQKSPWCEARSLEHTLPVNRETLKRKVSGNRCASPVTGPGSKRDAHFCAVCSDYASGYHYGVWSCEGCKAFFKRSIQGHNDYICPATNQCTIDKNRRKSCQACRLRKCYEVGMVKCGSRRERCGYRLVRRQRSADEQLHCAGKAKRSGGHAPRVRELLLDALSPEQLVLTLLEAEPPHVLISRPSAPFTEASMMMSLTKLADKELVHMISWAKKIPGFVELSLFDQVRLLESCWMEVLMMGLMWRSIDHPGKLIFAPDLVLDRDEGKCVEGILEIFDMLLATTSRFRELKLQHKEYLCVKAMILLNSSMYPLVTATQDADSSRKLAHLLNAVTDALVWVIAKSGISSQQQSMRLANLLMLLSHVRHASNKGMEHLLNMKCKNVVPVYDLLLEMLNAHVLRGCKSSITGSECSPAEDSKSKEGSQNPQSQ

- AC50 (Estrogen receptor beta): > 30 µM
- AC50 [1]: > 30 µM
- AC50 [2]: > 30 µM
Compound: C[C@]12C=CC(=O)C=C1CC[C@@H]1[C@@H]2[C@@H](O)C[C@@]2(C)[C@H]1CC[C@]2(O)C(=O)CO [PREDNISOLONE]

Compound: Cc1ccc(O)c([C@H](CCN(C(C)C)C(C)C)c2ccccc2)c1 [TOLTERODINE]
- AC50 (Histamine H2 receptor): 3.2 µM
- AC50 (D(1A) dopamine receptor): > 10 µM
- AC50 [3]: > 10 µM
- AC50 [4]: 0.0065 µM
- AC50 [5]: > 10 µM

Compound: N=C(N)NC(=O)c1nc(Cl)c(N)nc1N [AMILORIDE]
- AC50 (Estrogen receptor beta): > 30 µM
- AC50 [1]: > 30 µM
- AC50 [2]: > 30 µM
- AC50 (Histamine H2 receptor): > 10 µM
- AC50 (Progesterone receptor): > 30 µM
- AC50 (D(1A) dopamine receptor): > 10 µM
- AC50 [3]: > 10 µM
- AC50 [4]: > 10 µM
- AC50 [5]: > 10 µM

Compound: COc1cccc2c1C(=O)c1c(O)c3c(c(O)c1C2=O)C[C@@](O)(C(=O)CO)C[C@@H]3O[C@H]1C[C@H](N)[C@H](O)[C@H](C)O1 [DOXORUBICIN]
- AC50 (Progesterone receptor): 1.7 µM
- AC50 [5]: > 10 µM
